Paper PMC11249626, “Fluorophore-Labeled Pyrrolones Targeting the Intracellular Allosteric Binding Site of the Chemokine Receptor CCR1” (ACS Pharmacology & Translational Science, 2024)
Read-outs that look alike come from different tables or passages of the source.

Assays:
CCR2 = target: T1, CCR2 (Homo sapiens, UniProt P41597); test: NanoBRET competition binding assay for CCR2 based on 7, as previously reported; details: for inhibition at 20 µM: compound at 20 μM
T1 construct: host or cells: HEK293T, transient
T1 sequence (P41597 1-360 isoform P41597-2): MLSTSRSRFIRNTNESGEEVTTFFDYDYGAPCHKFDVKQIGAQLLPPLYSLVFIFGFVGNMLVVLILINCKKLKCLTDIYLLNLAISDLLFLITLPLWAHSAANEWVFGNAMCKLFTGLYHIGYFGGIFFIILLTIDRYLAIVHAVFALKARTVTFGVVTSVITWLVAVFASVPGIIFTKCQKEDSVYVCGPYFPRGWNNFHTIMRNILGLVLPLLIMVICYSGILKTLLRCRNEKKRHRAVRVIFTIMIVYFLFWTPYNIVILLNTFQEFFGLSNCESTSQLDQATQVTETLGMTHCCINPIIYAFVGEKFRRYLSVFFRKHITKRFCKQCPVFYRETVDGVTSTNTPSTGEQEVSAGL
Text: With 6 (Figure 1), a first lead structure for intracellular CCR1 inhibition that features an approximately 20-fold CCR1 over CCR2 selectivity was previously discovered by Ortiz Zacarías et al.([33]) In order to discover new chemotypes for selective CCR1 over CCR2 inhibition, we aimed to apply our novel NanoBRET competition binding assay for CCR1 in combination with our recently published CCR2 competition binding assay based on 7.[47] In our first attempt, we screened a small in-house library enriched with intracellular GPCR ligands and structural analogues thereof. […] Additionally, we tested 23 for binding to the IABS of CCR9 and CXCR2 using our recently reported NanoBRET-based assay platform (Figure 6C).[44],[45] In the course of these studies, we detected no binding of 23 to CCR9 and CXCR2 up to a concentration of 20 μM. Since cell lineage-dependent effects have been observed for CCR1 antagonists,[59] we studied the CCR1 over CCR2 selectivity of 23 by using a previously reported radioligand binding assay with membrane preparations from osteosarcoma (U2OS) cells stably expressing human CCR1 or CCR2.[33] […] In agreement with these previous reports,[33] we observed a reduction in CCR1 over CCR2 selectivity when moving from membrane-based binding assays to cell-based functional assays. […] To investigate a potential signaling bias of 23, we tested the compound by means of a NanoBiT miniGi recruitment assay.[60] […] Thus, this indicated no strong signaling bias of 23 (Figures S9E and S10C). To elucidate the SAR of this new scaffold for selective CCR1 over CCR2 inhibition, we synthesized several analogues of 23 (24–40) and tested them by means of our NanoBRET competition binding assays (Schemes S2 and S3, Table 1, Figures 6F and S11). First, we aimed to examine the impact of the stereochemistry of 23 on CCR1 affinity. As for the structurally related pyrrolone 4, large differences in CCR2 affinity between the eutomer 4-[R] and the distomer 4-[S] were described.[61] […] Furthermore, we identified the 4-hydroxyphenethyl group at position 1 of the pyrrolone scaffold as highly important for CCR1 affinity and selectivity. Its presence seems to block CCR2 binding, also when combined with the structural features of the high-affinity CCR2 ligand 5, as exemplified by 24. Especially the 4-hydroxy group at this moiety is essential for CCR1 binding (see 25 and 26). […] In position 5 of the pyrrolone, several aromatic and aliphatic substituents were tolerated (see 31–35).

human CCR2b = target: T2, human CCR2b (Homo sapiens, UniProt P41597); test: Membrane-based radioligand binding assay with [3H]-CCR2-RA-[R], U2OS membranes; details: [3H]CCR2-RA-[R] 6 nM, 25 °C
T2 sequence (P41597 1-360 isoform P41597-2): T1 sequence (P41597 1-360 isoform P41597-2)
Method: Membrane-based radioligand binding assays: Assays were performed according to the published protocol.13 Radioligand binding assays were performed in a 100 µ L reaction volume containing varying concentrations (final concentrations: 0.001 – 10 µM) of compounds 23 and 5, 6 nM [3H]-CCR2-RA-[R] (specific activity 60.6 Ci mmol-1, custom labeled by Vitrax in Placentia, CA, USA), and 15 µg membrane protein, all diluted in assay buffer (50mM Tris-HCl, 5 mM MgCl2, 0.1% CHAPS, at pH 7.4). Membranes were obtained from Tango™ CCR1-bla or Tango™ CCR2-bla osteosarcoma (U2OS) cells stably expressing the human CCR1 ([…]) or human CCR2b (U2OS-CCR2) cells (Invitrogen, Carlsbad, CA, USA). Total binding was determined in the absence of competing ligand, while non -specific binding was determined in the presence of 10 µM CCR2-RA-[R]. After membrane addition, reaction mixtures were incubated for 2 h at 25 °C while shaking. After 2 h, reactions were terminated by harvesting through a 96 -well GF/C filter plate using a PerkinElmer Filtermate harvester (PerkinElmer, Groningen, NL) and ice -cold wash buffer (50mM Tris-HCl, 5 mM MgCl2, 0.1% CHAPS, at pH 7.4). Afterwards, filter plate was dried, and radioactivity was measured in a P-E-2450 Microbeta2 scintillation plate counter (PerkinElmer, Groningen, NL) after addition of 25 µL of Microscint scintillation cocktail (PerkinElmer, Groningen, NL). […]
Technologies) for 20 min. […]
Finally, the top 5% of the identified hits were subsequently docked to a homology model of CCR1 (vide infra). After visual examination of the obtained binding modes 24 hit compounds were identified for further investigation .
Molecular docking: For the docking studies in the course of our virtual screening campaign, the CCR1 protein was […]
27, 28 CCR1 structure was optimized using the Quickprep and structure preparation wizard in MOE 24 using CHARMM27 forcefield. The protein was saved in mol2 format and loaded in GOLD.25, 26 The amino acids defining the IABS were listed in a text file to define the docking cavity. 50 GA runs were performed for docking CCR2-RA-[R] (4-[R]) and SN_12 (43), with the generated solutions clustered based on their RMSD with the threshold set to 0.75 Å using the complete linkage method. Docking runs were performed using ChemScore. Flexibility of amino acids Lys63ICL1, Arg1313.50, Leu2406.36 and Arg3078.49 was taken in consideration in the docking runs, with conformational sampling of their side chains being done by the rotamer libraries implemented in GOLD.25, 26 For the docking studies with our ligand-linker conjugates (Figure S1), molecular ligand structures were geometry optimized as neutral molecules by means of Avogadro (Version 1.2.0)29 using the Universal Force Field (UFF) and the Steepest Decent Algorithm until convergence (ΔE = 0).
CCR113 was used for docking. The compounds were docked by means of AutoDock Vina 1.1.2.30, 31 An exhaustiveness value of 8 and a search space of 22 x 22 x 22 Å³ was applied around the unliganded intracellular allosteric binding site of CCR1. Twenty docking poses were generated for each ligand and inspected manually and according to the docking score.

[1] = read-out: Ki, CCR2 (radioligand)

Row | SMILES | Ki (CCR2; NanoBRET competition, tracer 7) [nM] | Ki (human CCR2b; [1]) [nM] | Ki (human CCR2b; read-out: pKi, CCR2 (radioligand) (converted)) [nM] | inhibition at 20 µM (CCR2; read-out: % inh. of tracer binding, CCR2) [%] | inhibition at 20 µM (CCR2; read-out: CCR2 inhibition class (n.i.)) [%]
1 | CC(=O)C1=C(O)C(=O)N(c2ccc(Br)cc2F)C1C1CCCCC1 (stereo not drawn) [compound 5, reference compound] | 17.9 | 9 | 7.94 | – | –
2 | O=C(C1=C(O)C(=O)N(CCc2ccc(O)cc2)C1c1ccc(F)cc1)c1ccccc1 (racemic) [compound 23] | – | 3820 | – | -3 | < 10
